Reference: ChEMBL document CHEMBL1125568, “ATP-citrate lyase as a target for hypolipidemic intervention. Sulfoximine and 3-hydroxy-beta-lactam containing analogues of citric acid as potential tight-binding inhibitors” (J Med Chem, 1992)

T1: ATP-citrate synthase (Rattus norvegicus, UniProt P16638)
T1 sequence (P16638 whole entry): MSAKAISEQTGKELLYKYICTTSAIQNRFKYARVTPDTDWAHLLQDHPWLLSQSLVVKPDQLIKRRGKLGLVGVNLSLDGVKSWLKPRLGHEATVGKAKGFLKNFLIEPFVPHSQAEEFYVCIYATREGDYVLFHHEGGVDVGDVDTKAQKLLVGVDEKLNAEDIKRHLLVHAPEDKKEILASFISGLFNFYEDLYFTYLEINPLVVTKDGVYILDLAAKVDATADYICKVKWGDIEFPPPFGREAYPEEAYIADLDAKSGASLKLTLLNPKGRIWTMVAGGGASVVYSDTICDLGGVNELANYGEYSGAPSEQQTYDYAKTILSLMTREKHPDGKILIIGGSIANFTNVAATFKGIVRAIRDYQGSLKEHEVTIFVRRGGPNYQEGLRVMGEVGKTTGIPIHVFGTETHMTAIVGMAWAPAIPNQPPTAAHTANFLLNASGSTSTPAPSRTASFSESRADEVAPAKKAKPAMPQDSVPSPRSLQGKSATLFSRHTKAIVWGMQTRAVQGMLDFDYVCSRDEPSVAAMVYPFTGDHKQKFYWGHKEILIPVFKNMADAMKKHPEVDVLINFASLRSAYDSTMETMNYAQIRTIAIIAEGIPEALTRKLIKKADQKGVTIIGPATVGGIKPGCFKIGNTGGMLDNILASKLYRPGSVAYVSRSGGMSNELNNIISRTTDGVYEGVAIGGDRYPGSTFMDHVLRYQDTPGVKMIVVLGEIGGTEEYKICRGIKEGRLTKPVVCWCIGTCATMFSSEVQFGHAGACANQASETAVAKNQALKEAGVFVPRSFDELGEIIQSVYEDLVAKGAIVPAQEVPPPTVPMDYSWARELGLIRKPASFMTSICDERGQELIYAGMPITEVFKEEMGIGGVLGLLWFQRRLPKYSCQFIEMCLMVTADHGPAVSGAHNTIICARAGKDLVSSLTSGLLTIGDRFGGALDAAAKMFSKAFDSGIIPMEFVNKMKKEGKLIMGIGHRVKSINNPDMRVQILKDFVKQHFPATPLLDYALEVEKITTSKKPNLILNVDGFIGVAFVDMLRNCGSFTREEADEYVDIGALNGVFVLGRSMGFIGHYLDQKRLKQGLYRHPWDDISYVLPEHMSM

T2: ATP-citrate synthase (Rattus norvegicus) (UniProt P16638)
T2 sequence (whole entry): T1 sequence (P16638 whole entry)

B1: ATP-citrate synthase (Rattus norvegicus), P16638 (protein)
chain: T1 sequence (P16638 whole entry)

Assays:
ATP-citrate synthase = target: T1, ATP-citrate synthase; assay: Reversible binding Ki was measured by the inhibition of the carbon-carbon bond cleavage activity against rat ATP-Citrate Lyase
[1] = target: T2, ATP-citrate synthase (Rattus norvegicus); assay: Inhibitory activity against rat ATP-Citrate lyase measured in terms of Vmax.
[2] = compound: C[S+](=N)([O-])C[C@@](O)(CC(=O)O)C(=O)O; assay: Inhibitory activity against rat ATP-Citrate lyase measured in terms of Km.
[3] = substrate: O=C(O)CC(O)(CC(=O)O)C(=O)O

Molecule | Ki (ATP-citrate synthase) | other results
O=C(O)C[C@H](C[C@]1(O)CNC1=O)C(=O)O | > 9 mM | –
O=C(O)C[C@H](C[C@@]1(O)CNC1=O)C(=O)O | > 20 mM | –
C[S+](=N)([O-])C[C@@](O)(CC(=O)O)C(=O)O (stereo in doubt; 12a) [listing 1 of 2 here] | 0.25 mM | –
C[S+](=N)([O-])C[C@@](O)(CC(=O)O)C(=O)O (stereo in doubt; 12a) [listing 2 of 2 here] | – | Relative Vmax [1]: 0.25
C[S+](=N)([O-])C[C@@](O)(CC(=O)O)C(=O)O (stereo in doubt; 12b) [listing 1 of 2 here] | > 10 mM | –
C[S+](=N)([O-])C[C@@](O)(CC(=O)O)C(=O)O (stereo in doubt; 12b) [listing 2 of 2 here] | – | Relative Vmax [1]: < 0.003
B1 | – | Km [2]: 1300 µM; Km [3]: 110 µM
